Data published in ChEMBL document CHEMBL4190265, “Structural optimization elaborates novel potent Akt inhibitors with promising anticancer activity” (Eur J Med Chem, 2017).

Legend:
JeKo-1 [1] = test: Antiproliferative activity against human JeKo1 cells after 72 hrs by CellTiter Glo assay; format: functional, cell-based; conditions: JeKo-1, 72 h
[2] = Antiproliferative activity against human Mino cells after 72 hrs by CellTiter Glo assay; format: functional, cell-based
[3] = Antiproliferative activity against human SP49 cells after 72 hrs by CellTiter Glo assay; format: functional, cell-based
Maver1 = test: Antiproliferative activity against human Maver1 cells after 72 hrs by CellTiter Glo assay; format: functional, cell-based; conditions: Maver1, 72 h
Z-138 = test: Antiproliferative activity against human Z138 cells after 72 hrs by CellTiter Glo assay; format: functional, cell-based; conditions: Z-138, 72 h
[4] = molecular target: RAC-alpha serine/threonine-protein kinase (Homo sapiens, UniProt P31749); test: Inhibition of AKT1 (unknown origin) using biotinylated-STK as substrate after 45 mins by HTRF assay
Sequence of RAC-alpha serine/threonine-protein kinase (P31749 whole entry): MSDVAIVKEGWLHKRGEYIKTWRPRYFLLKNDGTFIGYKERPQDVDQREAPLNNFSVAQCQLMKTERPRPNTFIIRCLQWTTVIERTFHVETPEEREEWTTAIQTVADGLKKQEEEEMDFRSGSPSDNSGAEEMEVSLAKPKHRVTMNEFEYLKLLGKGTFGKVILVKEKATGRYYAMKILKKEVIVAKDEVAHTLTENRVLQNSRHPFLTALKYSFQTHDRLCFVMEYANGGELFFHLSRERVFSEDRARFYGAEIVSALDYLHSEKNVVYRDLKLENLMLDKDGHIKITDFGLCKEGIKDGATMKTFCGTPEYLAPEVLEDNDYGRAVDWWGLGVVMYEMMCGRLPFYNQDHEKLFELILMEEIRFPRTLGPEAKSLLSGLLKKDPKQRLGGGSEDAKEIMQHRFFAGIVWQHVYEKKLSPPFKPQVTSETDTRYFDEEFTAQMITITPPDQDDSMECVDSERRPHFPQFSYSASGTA

JVM-2 = test: Antiproliferative activity against human JVM2 cells after 72 hrs by CellTiter Glo assay; format: functional, cell-based; conditions: JVM-2, 72 h
JeKo-1 [5] = test: Induction of apoptosis in human JeKo1 cells assessed as early apoptotic cells at 1 uM after 48 hrs by Annexin V-FITC/propidium iodide double staining based flow cytometry (reference value: 5.42%); format: functional
JeKo-1 [6] = test: Induction of apoptosis in human JeKo1 cells assessed as late apoptotic cells at 5 uM after 48 hrs by Annexin V-FITC/propidium iodide double staining based flow cytometry (reference value: 1.9%); format: functional
JeKo-1 [7] = test: Induction of apoptosis in human JeKo1 cells assessed as viable cells at 0.5 uM after 48 hrs by Annexin V-FITC/propidium iodide double staining based flow cytometry (reference value: 91.1%); format: functional; conditions: JeKo-1, 48 h, read-out: Activity
JeKo-1 [8] = test: Induction of apoptosis in human JeKo1 cells assessed as necrotic cells at 0.5 uM after 48 hrs by Annexin V-FITC/propidium iodide double staining based flow cytometry (reference value: 0.81%); format: functional
JeKo-1 [9] = test: Cell cycle arrest in human JeKo1 cells assessed as accumulation at G2/M phase at 0.5 uM after 24 hrs by propidium iodide staining based flow cytometry (reference value: 18.4%); format: functional
JeKo-1 [10] = test: Cell cycle arrest in human JeKo1 cells assessed as accumulation at G2/M phase at 1 uM after 24 hrs by propidium iodide staining based flow cytometry (reference value: 18.4%); format: functional
JeKo-1 [11] = test: Cell cycle arrest in human JeKo1 cells assessed as accumulation at G0/G1 phase at 1 uM after 24 hrs by propidium iodide staining based flow cytometry (reference value: 44.8%); format: functional
JeKo-1 [12] = test: Cell cycle arrest in human JeKo1 cells assessed as accumulation at S phase at 1 uM after 24 hrs by propidium iodide staining based flow cytometry (reference value: 36.8%); format: functional
JeKo-1 [13] = test: Induction of apoptosis in human JeKo1 cells assessed as viable cells at 1 uM after 72 hrs by Annexin V-FITC/propidium iodide double staining based flow cytometry (reference value: 91.9%); format: functional; conditions: JeKo-1, 72 h, read-out: Activity
JeKo-1 [14] = test: Induction of apoptosis in human JeKo1 cells assessed as late apoptotic cells at 1 uM after 72 hrs by Annexin V-FITC/propidium iodide double staining based flow cytometry (reference value: 2.06%); format: functional
JeKo-1 [15] = test: Induction of apoptosis in human JeKo1 cells assessed as late apoptotic cells at 1 uM after 48 hrs by Annexin V-FITC/propidium iodide double staining based flow cytometry (reference value: 2.06%); format: functional
JeKo-1 [16] = test: Induction of apoptosis in human JeKo1 cells assessed as viable cells at 1 uM after 24 hrs by Annexin V-FITC/propidium iodide double staining based flow cytometry (reference value: 91.9%); format: functional; conditions: JeKo-1, 24 h, read-out: Activity
JeKo-1 [17] = test: Induction of apoptosis in human JeKo1 cells assessed as necrotic cells at 1 uM after 48 hrs by Annexin V-FITC/propidium iodide double staining based flow cytometry (reference value: 0.62%); format: functional
JeKo-1 [18] = test: Induction of apoptosis in human JeKo1 cells assessed as necrotic cells at 1 uM after 72 hrs by Annexin V-FITC/propidium iodide double staining based flow cytometry (reference value: 0.62%); format: functional
JeKo-1 [19] = test: Cell cycle arrest in human JeKo1 cells assessed as accumulation at S phase at 0.5 uM after 24 hrs by propidium iodide staining based flow cytometry (reference value: 36.8%); format: functional
JeKo-1 [20] = test: Induction of apoptosis in human JeKo1 cells assessed as early apoptotic cells at 0.5 uM after 48 hrs by Annexin V-FITC/propidium iodide double staining based flow cytometry (reference value: 6.18%); format: functional
JeKo-1 [21] = test: Cell cycle arrest in human JeKo1 cells assessed as accumulation at G0/G1 phase at 0.5 uM after 24 hrs by propidium iodide staining based flow cytometry (reference value: 44.8%); format: functional
JeKo-1 [22] = test: Induction of apoptosis in human JeKo1 cells assessed as early apoptotic cells at 1 uM after 24 hrs by Annexin V-FITC/propidium iodide double staining based flow cytometry (reference value: 5.42%); format: functional
JeKo-1 [23] = test: Induction of apoptosis in human JeKo1 cells assessed as early apoptotic cells at 1 uM after 48 hrs by Annexin V-FITC/propidium iodide double staining based flow cytometry (reference value: 6.18%); format: functional
JeKo-1 [24] = test: Induction of apoptosis in human JeKo1 cells assessed as necrotic cells at 5 uM after 48 hrs by Annexin V-FITC/propidium iodide double staining based flow cytometry (reference value: 0.81%); format: functional
JeKo-1 [25] = test: Induction of apoptosis in human JeKo1 cells assessed as viable cells at 1 uM after 48 hrs by Annexin V-FITC/propidium iodide double staining based flow cytometry (reference value: 91.9%); format: functional; conditions: JeKo-1, 48 h, read-out: Activity
JeKo-1 [26] = test: Induction of apoptosis in human JeKo1 cells assessed as late apoptotic cells at 0.5 uM after 48 hrs by Annexin V-FITC/propidium iodide double staining based flow cytometry (reference value: 1.9%); format: functional
JeKo-1 [27] = test: Induction of apoptosis in human JeKo1 cells assessed as necrotic cells at 1 uM after 24 hrs by Annexin V-FITC/propidium iodide double staining based flow cytometry (reference value: 0.62%); format: functional
JeKo-1 [28] = test: Induction of apoptosis in human JeKo1 cells assessed as early apoptotic cells at 5 uM after 48 hrs by Annexin V-FITC/propidium iodide double staining based flow cytometry (reference value: 6.18%); format: functional
JeKo-1 [29] = test: Induction of apoptosis in human JeKo1 cells assessed as necrotic cells at 1 uM after 48 hrs by Annexin V-FITC/propidium iodide double staining based flow cytometry (reference value: 0.81%); format: functional
JeKo-1 [30] = test: Induction of apoptosis in human JeKo1 cells assessed as early apoptotic cells at 1 uM after 72 hrs by Annexin V-FITC/propidium iodide double staining based flow cytometry (reference value: 5.42%); format: functional
JeKo-1 [31] = test: Induction of apoptosis in human JeKo1 cells assessed as late apoptotic cells at 1 uM after 48 hrs by Annexin V-FITC/propidium iodide double staining based flow cytometry (reference value: 1.9%); format: functional
JeKo-1 [32] = test: Induction of apoptosis in human JeKo1 cells assessed as viable cells at 5 uM after 48 hrs by Annexin V-FITC/propidium iodide double staining based flow cytometry (reference value: 91.1%); format: functional; conditions: JeKo-1, 48 h, read-out: Activity
JeKo-1 [33] = test: Induction of apoptosis in human JeKo1 cells assessed as late apoptotic cells at 1 uM after 24 hrs by Annexin V-FITC/propidium iodide double staining based flow cytometry (reference value: 2.06%); format: functional
JeKo-1 [34] = test: Induction of apoptosis in human JeKo1 cells assessed as viable cells at 1 uM after 48 hrs by Annexin V-FITC/propidium iodide double staining based flow cytometry (reference value: 91.1%); format: functional; conditions: JeKo-1, 48 h, read-out: Activity

## O=C(N1CCN(c2ncnc3[nH]cc(Br)c23)CC1)C1(c2ccc(Cl)cc2)CCNCC1
JeKo-1 [1]
  IC50: 1200 nM
[2]
  IC50: 3500 nM
[3]
  IC50: 4700 nM
Maver1
  IC50: 1800 nM
Z-138
  IC50: 1700 nM
[4]
  IC50: 1.5 nM
JVM-2
  IC50: 2300 nM

## O=C(Cc1ccc(Cl)cc1)N1CCN(c2ncnc3[nH]cc(Br)c23)CC1
JeKo-1 [1]
  IC50: 8700 nM
[2]
  IC50: 18100 nM
[3]
  IC50: 7800 nM
Maver1
  IC50: 18500 nM
Z-138
  IC50: 6800 nM
[4]
  IC50: 18 nM
JVM-2
  IC50: 9900 nM

## O=C(N1CCN(c2ncnc3[nH]ccc23)CC1)C1(c2ccc(Br)cc2)CCNCC1
[4]
  IC50: 27.1 nM

## CCn1c(-c2nonc2N)nc2c(C#CC(C)(C)O)ncc(OC[C@H]3CCCNC3)c21 [GSK-690693]
JeKo-1 [1]
  IC50: 3000 nM
[2]
  IC50: 20800 nM
[3]
  IC50: 4800 nM
Maver1
  IC50: 5100 nM
Z-138
  IC50: 3100 nM
JVM-2
  IC50: 1600 nM

## COc1ccc(C2(C(=O)N3CCN(c4ncnc5[nH]ccc45)CC3)CCNCC2)cc1
[4]
  IC50: 35.6 nM

## O=C(N1CCN(c2ncnc3[nH]cc(Cl)c23)CC1)C1(c2ccc(Cl)c(Cl)c2)CCNCC1
[4]
  IC50: 2.9 nM

## O=C(N1CCN(c2ncnc3[nH]cc(Cl)c23)CC1)C1(c2ccc(Br)cc2)CCNCC1
JeKo-1 [1]
  IC50: 300 nM
JeKo-1 [5]
  Activity: 34%
JeKo-1 [6]
  Activity: 23%
JeKo-1 [7]
  viability at 0.5 µM: 75.6%
JeKo-1 [8]
  Activity: 0.7%
JeKo-1 [9]
  Activity: 32.7%
JeKo-1 [10]
  Activity: 72.4%
[2]
  IC50: 700 nM
JeKo-1 [11]
  Activity: 8.8%
JeKo-1 [12]
  Activity: 18.8%
JeKo-1 [13]
  viability at 1 µM: 35.6%
JeKo-1 [14]
  Activity: 10.7%
JeKo-1 [15]
  Activity: 16.6%
JeKo-1 [16]
  viability at 1 µM: 69.7%
JeKo-1 [17]
  Activity: 0.21%
JeKo-1 [18]
  Activity: 0.26%
JeKo-1 [19]
  Activity: 21.2%
[3]
  IC50: 1500 nM
JeKo-1 [20]
  Activity: 15.4%
JeKo-1 [21]
  Activity: 46.1%
JeKo-1 [22]
  Activity: 9.81%
JeKo-1 [23]
  Activity: 34%
JeKo-1 [24]
  Activity: 0.43%
JeKo-1 [25]
  viability at 1 µM: 49.1%
Maver1
  IC50: 300 nM
JeKo-1 [26]
  Activity: 8.31%
Z-138
  IC50: 200 nM
JeKo-1 [27]
  Activity: 0.091%
JeKo-1 [28]
  Activity: 70.1%
JeKo-1 [29]
  Activity: 0.21%
JeKo-1 [30]
  Activity: 53.5%
[4]
  IC50: 1.8 nM
JeKo-1 [31]
  Activity: 16.6%
JVM-2
  IC50: 700 nM
JeKo-1 [32]
  viability at 5 µM: 6.4%
JeKo-1 [33]
  Activity: 20.4%
JeKo-1 [34]
  viability at 1 µM: 49.1%

## O=C(N1CCN(c2ncnc3[nH]cc(Br)c23)CC1)C1(c2ccccc2)CCNCC1
[4]
  IC50: 20.3 nM

## O=C(N1CCN(c2ncnc3[nH]ccc23)CC1)C1(c2ccc(Cl)c(Cl)c2)CCNCC1
[4]
  IC50: > 40 nM

## O=C(N1CCN(c2ncnc3[nH]cc(Cl)c23)CC1)C1(c2ccc(Cl)cc2)CCNCC1
[4]
  IC50: 1.9 nM

## O=C(N1CCN(c2ncnc3[nH]cc(Br)c23)CC1)C1(c2cccc(Br)c2)CCNCC1
[4]
  IC50: 7.6 nM

## O=C(N1CCN(c2ncnc3[nH]cc(Cl)c23)CC1)C1(c2cccc(Br)c2)CCNCC1
[4]
  IC50: 5.6 nM

## O=C(N1CCN(c2ncnc3[nH]ccc23)CC1)C1(c2ccc(Cl)cc2)CCNCC1
[4]
  IC50: 26.5 nM

## O=C(N1CCN(c2ncnc3[nH]cc(Br)c23)CC1)C1(c2ccc(Cl)c(Cl)c2)CCNCC1
[4]
  IC50: 4.3 nM

## COc1ccc(C2(C(=O)N3CCN(c4ncnc5[nH]cc(Br)c45)CC3)CCNCC2)cc1
[4]
  IC50: 14.1 nM

## CC(C)(C)c1ccc(C2(C(=O)N3CCN(c4ncnc5[nH]ccc45)CC3)CCNCC2)cc1
[4]
  IC50: > 40 nM
